From ChEMBL document CHEMBL5154871, “Non-peptidyl non-covalent cathepsin C inhibitoEEr bearing a unique thiophene-substituted pyridine: Design, structure-activity relationship and anti-inflammatory activity in vivo” (Eur J Med Chem, 2022)
The source made the active and inactive calls. The calls are words filed in the database; no cut-off is given here.

Experiments:
[1] = MRT in Sprague-Dawley rat at 2 mg/kg, iv measured after 24 hrs by LC-MS/MS analysis; format: ADME, organism-based; conditions: in vivo
[2] = molecular target: T1, Dipeptidyl peptidase 1 (Mus musculus) (UniProt P97821); test: Inhibition of Cathepsin C in C57BL/6 mouse Bone marrow cells assessed as reduction of NSPs stability by measuring stability of cathepsin G at 1 uM treated for 48 hrs by Western blotting analysis; format: cell-based; parameters: scale not given: the % may be the effect or the level left; conditions: Bone marrow cell
T1 sequence (whole entry): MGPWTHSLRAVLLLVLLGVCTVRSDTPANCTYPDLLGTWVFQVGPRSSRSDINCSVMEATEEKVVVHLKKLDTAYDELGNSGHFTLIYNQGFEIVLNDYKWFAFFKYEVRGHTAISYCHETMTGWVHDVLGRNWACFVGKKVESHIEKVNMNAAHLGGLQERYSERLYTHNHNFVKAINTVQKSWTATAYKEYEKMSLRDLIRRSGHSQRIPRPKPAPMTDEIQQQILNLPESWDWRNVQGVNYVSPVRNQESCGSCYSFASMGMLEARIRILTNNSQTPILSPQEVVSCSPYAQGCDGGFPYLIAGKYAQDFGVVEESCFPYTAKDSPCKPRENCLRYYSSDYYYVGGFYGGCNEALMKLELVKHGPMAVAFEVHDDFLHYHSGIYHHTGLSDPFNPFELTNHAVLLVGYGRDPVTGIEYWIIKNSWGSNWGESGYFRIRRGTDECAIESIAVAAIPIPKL

[3] = Acute toxicity in ICR mouse assessed as pathological changes of lungs at 1500 mg/kg, po administered as single dose measured after 7 days by H and E staining based assay; format: organism-based; conditions: in vivo, time 7 day
[4] = molecular target: T2, Dipeptidyl peptidase 1 (Homo sapiens, UniProt P53634); test: Inhibition of Cathepsin C in human U-937 cells using H-Gly-Phe-AFC as substrate pretreated for 1 hr followed by substrate addition and incubated for 60 mins by microplate reader assay; format: cell-based
[5] = AUC(last) in Sprague-Dawley rat at 2 mg/kg, iv measured after 24 hrs by LC-MS/MS analysis; format: ADME, organism-based; parameters: dose 2 mg/kg, time 24 hrs, route iv; conditions: in vivo
[6] = system: Mus musculus; test: Anti-inflammatory activity against po dosed LPS-induced ALI C57BL/6 mouse model assessed as increase in IL-10 level in lungs treated 1 hr prior to LPS challenge and measured after 48 hrs by ELISA; format: functional, organism-based; conditions: dose 2-50 mg/kg, time 49.0 hrs, DDE = dose-dependent effect
[7] = molecular target: T1, Dipeptidyl peptidase 1 (Mus musculus); test: Inhibition of Cathepsin C in C57BL/6 mouse Bone marrow cells assessed as reduction of NSPs stability by measuring stability of neutrophil elastase at 1 uM treated for 6 hrs by Western blotting analysis; format: cell-based; parameters: scale not given: the % may be the effect or the level left; conditions: Bone marrow cell
[8] = molecular target: T2, Dipeptidyl peptidase 1; test: Inhibition of Cathepsin C in human THP-1 cells using H-Gly-Phe-AFC as substrate pretreated for 1 hr followed by substrate addition and incubated for 60 mins by microplate reader assay; format: cell-based
[9] = system: Mus musculus; test: In vivo inhibition of cathepsin C in po dosed LPS-induced ALI C57BL/6 mouse model assessed as downregulation of Cat G activity in bone marrow treated 1 hr prior to LPS challenge and measured after 48 hrs; format: functional, organism-based; conditions: dose 2-50 mg/kg, time 49.0 hrs, DDE = dose-dependent effect
[10] = system: Mus musculus; test: Anti-inflammatory activity against po dosed LPS-induced ALI C57BL/6 mouse model assessed as decrease in GM-CSF level in serum treated 1 hr prior to LPS challenge and measured after 48 hrs by ELISA; format: functional, organism-based; conditions: dose 2-50 mg/kg, time 49.0 hrs, DDE = dose-dependent effect
[11] = molecular target: T2, Dipeptidyl peptidase 1; test: Binding affinity to Cathepsin C in human U-937 cells assessed as increase in thermal stability at 10 uM measured from 46 to 52 degC after 4 hrs by cellular thermal shift assay; format: cell-based
[12] = MRT in Sprague-Dawley rat at 10 mg/kg, po measured after 24 hrs by LC-MS/MS analysis; format: ADME, organism-based; conditions: in vivo
[13] = system: Mus musculus; test: Anti-inflammatory activity against LPS-induced ALI C57BL/6 mouse model assessed as increase in animal survival rate at 2 to 50 mg/kg, po treated 1 hr prior to LPS challenge and measured after 48 hrs; format: functional, organism-based; conditions: dose 2-50 mg/kg, time 49.0 hrs
[14] = system: Mus musculus; test: In vivo inhibition of cathepsin C in bone marrow of po dosed LPS-induced ALI C57BL/6 mouse model treated 1 hr prior to LPS challenge and measured after 48 hrs; format: functional, organism-based; conditions: dose 2-50 mg/kg, time 49.0 hrs, DDE = dose-dependent effect
[15] = molecular target: T1, Dipeptidyl peptidase 1 (Mus musculus); test: Inhibition of Cathepsin C in C57BL/6 mouse Bone marrow cells assessed as reduction of NSPs stability by measuring stability of neutrophil elastase at 1 uM treated for 48 hrs by Western blotting analysis; format: cell-based; parameters: scale not given: the % may be the effect or the level left; conditions: Bone marrow cell
[16] = AUC(0 to infinity) in Sprague-Dawley rat at 2 mg/kg, iv by LC-MS/MS analysis; format: ADME, organism-based; parameters: time infinity, dose 2 mg/kg, route iv; conditions: in vivo
[17] = Cmax in Sprague-Dawley rat at 10 mg/kg, po measured after 24 hrs by LC-MS/MS analysis; format: ADME, organism-based; parameters: dose 10 mg/kg, time 24 hrs, route po; conditions: in vivo
[18] = Half life in Sprague-Dawley rat at 2 mg/kg, iv measured for 24 hrs by LC-MS/MS analysis; format: ADME, organism-based; conditions: in vivo
[19] = AUC(last) in Sprague-Dawley rat at 10 mg/kg, po measured after 24 hrs by LC-MS/MS analysis; format: ADME, organism-based; parameters: dose 10 mg/kg, time 24 hrs, route po; conditions: in vivo
[20] = system: Mus musculus; test: In vivo inhibition of cathepsin C in blood of po dosed LPS-induced ALI C57BL/6 mouse model treated 1 hr prior to LPS challenge and measured after 48 hrs; format: functional, organism-based; conditions: dose 2-50 mg/kg, time 49.0 hrs, DDE = dose-dependent effect
[21] = Tmax in Sprague-Dawley rat at 10 mg/kg, po measured after 24 hrs by LC-MS/MS analysis; format: ADME, organism-based; conditions: in vivo
[22] = Oral bioavailability in Sprague-Dawley rat at 10 mg/kg measured after 24 hrs by LC-MS/MS analysis; format: ADME, organism-based; conditions: in vivo
[23] = system: Mus musculus; test: In vivo inhibition of cathepsin C in po dosed LPS-induced ALI C57BL/6 mouse model assessed as downregulation of PR3 activity in blood treated 1 hr prior to LPS challenge and measured after 48 hrs; format: functional, organism-based; conditions: dose 2-50 mg/kg, time 49.0 hrs, DDE = dose-dependent effect
[24] = molecular target: T1, Dipeptidyl peptidase 1 (Mus musculus); test: Inhibition of Cathepsin C in C57BL/6 mouse Bone marrow cells assessed as reduction of NSPs stability by measuring stability of cathepsin G at 1 uM treated for 12 hrs by Western blotting analysis; format: cell-based; parameters: scale not given: the % may be the effect or the level left; conditions: Bone marrow cell
[25] = Half life in Sprague-Dawley rat at 10 mg/kg, po measured for 24 hrs by LC-MS/MS analysis; format: ADME, organism-based; conditions: in vivo
[26] = system: Mus musculus; test: Anti-inflammatory activity against po dosed LPS-induced ALI C57BL/6 mouse model assessed as decrease in TNF-alpha level in serum treated 1 hr prior to LPS challenge and measured after 48 hrs by ELISA; format: functional, organism-based; conditions: dose 2-50 mg/kg, time 49.0 hrs, DDE = dose-dependent effect
[27] = AUC(0 to infinity) in Sprague-Dawley rat at 10 mg/kg, po by LC-MS/MS analysis; format: ADME, organism-based; parameters: time infinity, dose 10 mg/kg, route po; conditions: in vivo
[28] = molecular target: T1, Dipeptidyl peptidase 1 (Mus musculus); test: Inhibition of Cathepsin C in C57BL/6 mouse Bone marrow cells assessed as reduction of NSPs stability by measuring stability of protease 3 at 1 uM treated for 12 hrs by Western blotting analysis; format: cell-based; parameters: scale not given: the % may be the effect or the level left; conditions: Bone marrow cell
[29] = system: Mus musculus; test: Anti-inflammatory activity against po dosed LPS-induced ALI C57BL/6 mouse model assessed as increase in IL-10 level in serum treated 1 hr prior to LPS challenge and measured after 48 hrs by ELISA; format: functional, organism-based; conditions: dose 2-50 mg/kg, time 49.0 hrs, DDE = dose-dependent effect
[30] = system: Mus musculus; test: Anti-inflammatory activity against po dosed LPS-induced ALI C57BL/6 mouse model assessed as decrease in histopatological changes of lungs treated 1 hr prior to LPS challenge and measured after 48 hrs by H and E staining based analysis; format: functional, organism-based; conditions: dose 2-50 mg/kg, time 49.0 hrs, DDE = dose-dependent effect

T2 sequence (P53634 25-134 limits assumed): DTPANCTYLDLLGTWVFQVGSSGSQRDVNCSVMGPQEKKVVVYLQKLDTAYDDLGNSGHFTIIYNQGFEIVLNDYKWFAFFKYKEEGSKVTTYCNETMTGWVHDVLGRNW
T2 sequence (P53634 231-394 limits assumed): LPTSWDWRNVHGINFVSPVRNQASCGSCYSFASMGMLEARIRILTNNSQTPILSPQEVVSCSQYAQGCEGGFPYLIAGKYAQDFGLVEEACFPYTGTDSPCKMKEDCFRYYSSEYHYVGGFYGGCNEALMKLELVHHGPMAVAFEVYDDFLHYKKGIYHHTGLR
T2 sequence (P53634 395-463 limits assumed): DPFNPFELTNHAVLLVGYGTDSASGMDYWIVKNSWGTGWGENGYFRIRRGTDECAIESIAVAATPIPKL

Question: With `CC(=O)Nc1cccc(Nc2nc(Nc3ccc(-c4ccsc4)cn3)ncc2Cl)c1` as the molecule, how does the MRT [1] read?
Answer: 3.38 h

Question: What about the Activity [2] of the same molecule?
Answer: 50.1%

Question: What about the Activity [3] of the same molecule?
Answer: Non-Toxic

Question: What about the IC50 [4] of the same molecule?
Answer: 70.2 nM

Question: What about the AUC(0-t) at 24 h [5] of the same molecule?
Answer: 1440 ng·h/mL

Question: What about the Activity [6] of the same molecule?
Answer: Dde

Question: And the Activity [7]?
Answer: 93.5%

Question: And the IC50 [8]?
Answer: 115 nM

Question: And the inhibition [9]?
Answer: Dde

Question: What about the Activity [10] of the same molecule?
Answer: Dde

Question: And the Activity [11]?
Answer: Active

Question: What about the MRT [12] of the same molecule?
Answer: 2.35 h

Question: And the Activity [13]?
Answer: Active

Question: And the inhibition [14]?
Answer: Dde

Question: And the Activity [15]?
Answer: 46.1%

Question: And the AUC [16]?
Answer: 1124.78 ng·h/mL

Question: And the Cmax [17]?
Answer: 177 ng/mL

Question: And the half-life [18]?
Answer: 2.5 h

Question: What about the AUC(0-t) at 24 h [19] of the same molecule?
Answer: 511 ng·h/mL

Question: And the inhibition [20]?
Answer: Dde

Question: What about the Tmax [21] of the same molecule?
Answer: 0.77 h

Question: What about the F [22] of the same molecule?
Answer: 42.07%

Question: What about the inhibition [23] of the same molecule?
Answer: Dde

Question: And the Activity [24]?
Answer: 81.1%

Question: And the half-life [25]?
Answer: 1.79 h

Question: And the Activity [26]?
Answer: Dde

Question: What about the AUC [27] of the same molecule?
Answer: 473.18 ng·h/mL

Question: What about the Activity [28] of the same molecule?
Answer: 78.4%

Question: And the Activity [29]?
Answer: Dde

Question: What about the Activity [30] of the same molecule?
Answer: Dde
